We go through twelve compounds from patent US12459951B2, “Compounds that interact with RAS superfamily proteins for treatment of cancers, inflammatory diseases, rasopathies, and fibrotic disease” (SHY Therapeutics, LLC, priority 2022, dated 2025).

Experiment [1] has as its system MiaPaca-2 (expressing KRAS G12C mutant). Briefly: Proliferation Assay (Cell Viability Assay). The settings on record: Homo sapiens, MIA PaCa-2; read-out: Proliferation in MiaPaca-2: IC50. Format: cell-based. As to the method:
Protocol for Proliferation Assay
This assay is referred to as the “Proliferation Assay” or “Cell Viability Assay” throughout this application.
Cell lines: Human tumor-derived cell lines were purchased from American Type Culture Collection. Human tumor-derived pancreatic cancer cell line MiaPaca-2 (expressing KRAS G12C mutant) and Panc-1 (expressing KRas G12D mutant), and Human non-small cell lung cancer (NSCLC) cell line A549 (expressing KRas G12S mutant) were grown in complete DMEM-High Glucose medium. Human colon cancer cell line SW-620 (expressing KRas G12V mutant) was grown in RPMI 1640 medium. All cell lines were supplemented with penicillin (100 U/mL), streptomycin (100 μg/mL), and 10% heat-inactivated FBS at 37° C. in a humidified incubator with 5% CO2.
Method: Cells were plated at 2000 to 5000 cells/well density in 96-wells plate and cultured overnight. Small molecules to be tested were added to the cells in the final concentration of 10 μM in the presence of 0.3% DMSO and 10% FBS and incubated for 2-4 days at 37° C. in a humidified incubator with 5% CO2. For IC50 value determination, serial dilutions of compounds were added to cells under the same conditions.
Assay: At the end of the incubation period, cell viability was determined using the CellTiter 96® Aqueous One Solution Cell Proliferation Assay according to manufacturer specifications (Promega, Madison, WI). The percentage of small molecules inhibition of cellular proliferation was calculated from raw data.
Cell lines: these Human tumor-derived cell lines were purchased from American Type Culture Collection. Human tumor-derived pancreatic cancer cell line MiaPaca-2 (expressing KRAS G12C mutant) and Panc-1 (expressing KRas G12D mutant), and Human non-small cell lung cancer (NSCLC) cell line A549 (expressing KRas G12S mutant), and Human melanoma cell line A375 (wild type Kras) were grown in complete DMEM-High Glucose medium. Human tumor-derived pancreatic cancer cell lines SU86.86 (expressing KRas G12D mutant), BxPC3 (expressing wild type K-Ras), and Human non-small cell lung cancer (NSCLC) cell lines NCI-H441 (expressing KRas G12S mutant), NCI-H1975 (expressing wild type KRas), NCI-H358 (expressing KRas G12C mutant), NCI-H1299 (expressing NRas Q61H mutant), and Human colon cancer cell line SW-620 (expressing KRas G12V mutant), Human triple negative breast cancer cell line HCC-1806 (expressing wild type KRas), and Human tumor-derived multiple myeloma cell line MM.1R (expressing wild type KRAS), were grown in RPMI 1640 medium. Human tumor-derived breast cancer cell line BT-549 (expressing wild type KRAS) was grown in RPMI 1640 medium in the presence of 11.8U insulin. Human tumor-derived pancreatic cancer cell line HPAF-II (expressing KRas G12D mutant), Human triple negative breast cancer cell line BT-20 (expressing wild type KRas), and Human colon cancer cell line LS123 (expressing KRas G12S mutant), were grown in EMEM medium. Human tumor-derived pancreatic cancer cell line CF-PAC1 (expressing KRas G12V mutant) was frown in IMDM medium, and Human colon cancer cell line HT29 (expressing wild type KRas) was grown in McCoy's 5A medium. The colon cancer cell line GP2d (expressing KRas G12D mutant) was purchased from MilliporeSigma and grown in DMEM-High Glucose medium. All cell lines were supplemented with penicillin (100 U/mL), streptomycin (100 μg/mL), and 10% heat-inactivated FBS at 37° C. in a humidified incubator with 5% CO2.
Method: Cells were plated at 2000 to 5000 cells/well density in 96-wells plate and cultured overnight. Small molecules that were tested were added to the cells in the final concentration of 10 μM in the presence of 0.3% DMSO and 10% FBS, and incubated for 2-4 days at 37° C. in a humidified incubator with 5% CO2. For IC50 value determination, serial dilutions of compounds were added to cells under the same conditions.

The subject of experiment [2] is TNF-alpha. Put plainly: TNF-alpha Quantification Assay (ELISA), LPS-stimulated RAW 264.7. The format is cell-based. The settings on record: Mus musculus, RAW264.7; at 10 μM; read-out: TNFα: % inh. (In an ELISA, binding on a coated surface is turned into a signal by an enzyme label.)
Experiment [3] has as its system Smad2/Smad3 phosphorylation. Put plainly: Phospho-Smad2/3 Inhibition Assay (western blot), Panc-1. Format: cell-based, human. The settings on record: at 10 μM, Panc-1 pancreatic cancer cell line; starred symbols = activation. How it is done: Protocol for Phospho-Smad2/3 Inhibition Assay
This assay is referred to as the “Phospho-Smad2/3 Inhibition Assay” throughout this application.
Cell lines: Human tumor-derived pancreatic cancer cell line Panc-1 (expressing KRas G12D mutant) and mouse muscle myoblast C2C12 were purchased from American Type Culture Collection and grown in complete DMEM-High Glucose, supplemented with penicillin (100 U/mL), streptomycin (100 μg/mL), and 10% heat-inactivated FBS at 37° C. in a humidified incubator with 5% CO2.
Method: Cells were plated at 350000 cells/well density in a 12-well plate, allowed 3 hours to adhere to the plate, then starved in the appropriate medium in the presence of 0.5% FBS overnight. The small molecules to be tested were added to the cells in the final concentration of 10 μM in the presence of 0.3% DMSO for 3 hours incubation at 37° C. For IC50 value determination, serial dilutions of compounds were added to cells under the same conditions. Next, Panc-1 cells were stimulated with 10 ng/ml TGF-b1 for 1 hour, and C2C12 cells were stimulated with 10 ng/ml TGF-b1 for 20 minutes (recombinant human TGF-b1, R&D Systems). After stimulation cells were lysed with lysis buffer containing 1% Triton X-100, EDTA, and Halt™ Protease & Phosphatase Inhibitor Cocktail (Thermo Scientific). Protein concentration was assessed by BCA protein assay (Thermo Scientific). Phosphorylation level of Smad2/Smad3 was determined by western blot.
Western blot protocol: Equal amounts of protein (15-50 μg) were separated by SDS-PAGE and transferred to nitrocellulose membranes (Invitrogen by Thermo Fisher Scientific). The membrane was stained with Ponceau S Stain (Boston BioProducts) to verify uniform protein loading. Membranes were blocked with 10% milk and phosphorylation levels of Smad2/Smad3 were assessed by incubating overnight at 4° C. with the following antibodies: Phospho-Smad2 (Ser465/467) and Phosph-Smad3 (Ser423/425), both from Cell Signaling Technology. Then the membranes were incubated with HRP-conjugated secondary antibody (Jackson Immunoresearch, West Grove, PA). Bands were incubated in Amersham ECL Prime Western Blotting Detection Reagent (GE Healthcare) and visualized using the ChemiDoc MP imaging system (Bio-Rad).
(In general: In western blotting, separated proteins are transferred to a membrane and probed.)

pIC50: −log10 of the molar value. A value given as a limit tells only on which side of the number the result lay.

Regarding `CO[C@H]1CC[C@@H](Nc2nc(-c3nccn3C)nn3cc(-c4ccn(C)n4)c(C)c23)C1` (racemic) [Compound 133, rac N-((1R,3S)-3-Methoxycyclopentyl)-5-methyl-2-(1-methyl-1H-imidazol-2-yl)-6-(1-methyl-1H-pyrazol-3-yl)pyrrolo[2,1-f][1,2,4]triazin-4-amine], the pIC50 in experiment [1] was < 6.00. Further, in experiment [2], the inhibition at 10 µM lay in the range of 1 to 24%. Moreover, the “% inh of Smad2/3 phosphorylation in Panc-1” value (“% inh” below) in experiment [3] is listed as “A (A = 1-25% inhibition)”.

As for `Cc1c(-c2ccn(C)n2)cn2nc(-c3nccn3C)nc(Nc3cnccn3)c12` [Compound 120, 5-Methyl-2-(1-methyl-1H-imidazol-2-yl)-6-(1-methyl-1H-pyrazol-3-yl)-N-(pyrazin-2-yl)pyrrolo[2,1-f][1,2,4]triazin-4-amine], in experiment [1], the pIC50 is > 6.82. Further, in experiment [2], the inhibition at 10 µM fell in the range of 1 to 24%. Moreover, the “% inh” value in experiment [3] is given as “A* (A* = 1-25% activation)”.

As to `COc1cc(Nc2nc(-c3nccn3C)nn3cc(-c4ccccn4)c(C)c23)ncn1` [Compound 94, N-(6-Methoxypyrimidin-4-yl)-5-methyl-2-(1-methyl-1H-imidazol-2-yl)-6-(pyridin-2-yl)pyrrolo[2,1-f][1,2,4]triazin-4-amine], the pIC50 in experiment [1] was > 6.82. Further, the inhibition at 10 µM in experiment [2] was in the range of 25 to 49%. The “% inh” value in experiment [3] is on record as “B* (B* = 26-45% activation)”.

Regarding `CCOc1ccnc(Nc2nc(-c3nccn3C)nn3cc(-c4ccn(C5CC5)n4)c(C)c23)c1` [Compound 141, 6-(1-Cyclopropyl-1H-pyrazol-3-yl)-N-(4-ethoxypyridin-2-yl)-5-methyl-2-(1-methyl-1H-imidazol-2-yl)pyrrolo[2,1-f][1,2,4]triazin-4-amine], the pIC50 in experiment [1] was > 6.82. Further, the inhibition at 10 µM in experiment [2] amounted to 0%. In experiment [3], the “% inh” value is recorded as “D (D = 76-100% inhibition)”.

In the case of `Cc1c(-c2ccn(C)n2)cn2nc(-c3nccn3C)nc(Nc3cc(OCCO)ncn3)c12` [Compound 101, 2-((6-((5-Methyl-2-(1-methyl-1H-imidazol-2-yl)-6-(1-methyl-1H-pyrazol-3-yl)pyrrolo[2,1-f][1,2,4]triazin-4-yl)amino)pyrimidin-4-yl)oxy) ethan-1-ol], in experiment [1], the pIC50 was 6.30 to 6.82. Also, the inhibition at 10 µM in experiment [2] amounted to 0%. Moreover, in experiment [3], the “% inh” value is on record as “D* (D* = 76-100% activation)”.

Take `Cc1c(-c2cccnc2)cn2nc(-c3nccn3C)nc(Nc3ccncn3)c12` [Compound 156, 5-Methyl-2-(1-methyl-1H-imidazol-2-yl)-6-(pyridin-3-yl)-N-(pyrimidin-4-yl)pyrrolo[2,1-f][1,2,4]triazin-4-amine]: the pIC50 in experiment [1] is > 6.82. For the same compound, the inhibition at 10 µM in experiment [2] was determined as 0%. The “% inh” value in experiment [3] is on record as “D (D = 76-100% inhibition)”.

As for `COc1ccnc(Nc2nc(-c3nccn3C)nn3cc(-c4cccnc4)c(-c4ccccn4)c23)c1` [Compound 166, N-(4-Methoxypyridin-2-yl)-2-(1-methyl-1H-imidazol-2-yl)-5-(pyridin-2-yl)-6-(pyridin-3-yl)pyrrolo[2,1-f][1,2,4]triazin-4-amine], the pIC50 in experiment [1] is < 6.00. Further, the inhibition at 10 µM in experiment [2] lay in the range of 75 to 100%. Further, in experiment [3], the “% inh” value was “C* (C* = 46-75% activation)”.

As for `COc1cc(Nc2nc(-c3nccn3C)nn3cc(-c4cccnc4)c(-c4ccccn4)c23)ncn1` [Compound 167, N-(6-Methoxypyrimidin-4-yl)-2-(1-methyl-1H-imidazol-2-yl)-5-(pyridin-2-yl)-6-(pyridin-3-yl)pyrrolo[2,1-f][1,2,4]triazin-4-amine], the pIC50 in experiment [1] was < 6.00. The inhibition at 10 µM in experiment [2] was 0%. Besides, in experiment [3], the “% inh” value is 0 (0 = 0% inhibition).

For the compound `CO[C@@H]1CC[C@@H](Nc2nc(-c3nccn3C)nn3cc(-c4cccnc4)c(C)c23)C1` (racemic) [Compound 154, rac N-((1R,3R)-3-methoxy-cyclopentyl)-5-methyl-2-(1-methyl-1H-imidazol-2-yl)-6-(pyridin-3-yl)pyrrolo[2,1-f][1,2,4]triazin-4-amine], the pIC50 in experiment [1] was < 6.00. The inhibition at 10 µM in experiment [2] is 0%. Moreover, the “% inh” value in experiment [3] is “C (C = 46-75% inhibition)”.

With `Cc1c(-c2ccn(C)n2)cn2nc(-c3nccn3C)nc(Nc3cc(OC(F)F)ccn3)c12` [Compound 128, N-(4-(Difluoromethoxy)pyridin-2-yl)-5-methyl-2-(1-methyl-1H-imidazol-2-yl)-6-(1-methyl-1H-pyrazol-3-yl)pyrrolo[2,1-f][1,2,4]triazin-4-amine], in experiment [1], the pIC50 is > 6.82. Also, the inhibition at 10 µM in experiment [2] was in the range of 25 to 49%. Besides, the “% inh” value in experiment [3] was “A (A = 1-25% inhibition)”.

Regarding `Cc1c(-c2ccn(C)n2)cn2nc(-c3nccn3C)nc(Nc3n[nH]c(C4CC4)n3)c12` [Compound 113, N-(5-Cyclopropyl-1H-1,2,4-triazol-3-yl)-5-methyl-2-(1-methyl-1H-imidazol-2-yl)-6-(1-methyl-1H-pyrazol-3-yl)pyrrolo[2,1-f][1,2,4]triazin-4-amine], the pIC50 in experiment [1] was > 6.82. For the same compound, the inhibition at 10 µM in experiment [2] lay in the range of 25 to 49%. The “% inh” value in experiment [3] is “D* (D* = 76-100% activation)”.

As for `COc1cc(Nc2nc(-c3nccn3C)nn3cc(-c4ccn(C(F)F)n4)c(C)c23)ncn1` [Compound 98, 6-(1-(Difluoromethyl)-1H-pyrazol-3-yl)-N-(6-methoxypyrimidin-4-yl)-5-methyl-2-(1-methyl-1H-imidazol-2-yl)pyrrolo[2,1-f][1,2,4]triazin-4-amine], the pIC50 in experiment [1] was > 6.82. In experiment [2], the inhibition at 10 µM came to 0%. For the same compound, in experiment [3], the “% inh” value was “D (D = 76-100% inhibition)”.
